Source: article PMC10782225 (The FASEB Journal, 2023)
Like-named read-outs stand apart in the source and are kept apart here.

How the values were obtained:
[1] = target: T1, α3β4‐nAChR (Homo sapiens, UniProt P30926+P32297); format: cell-based
T1 construct: expressed in transfected cells; host or cells: Xenopus laevis oocytes, cRNA injection

[2] = target: T2, human α7β2‐nAChR (Homo sapiens, UniProt P17787+P36544); experiment: cell-based
T2 construct: expressed in transfected cells; host or cells: Xenopus laevis oocytes, cRNA injection
T2 sequence (P36544 23-502 limits assumed): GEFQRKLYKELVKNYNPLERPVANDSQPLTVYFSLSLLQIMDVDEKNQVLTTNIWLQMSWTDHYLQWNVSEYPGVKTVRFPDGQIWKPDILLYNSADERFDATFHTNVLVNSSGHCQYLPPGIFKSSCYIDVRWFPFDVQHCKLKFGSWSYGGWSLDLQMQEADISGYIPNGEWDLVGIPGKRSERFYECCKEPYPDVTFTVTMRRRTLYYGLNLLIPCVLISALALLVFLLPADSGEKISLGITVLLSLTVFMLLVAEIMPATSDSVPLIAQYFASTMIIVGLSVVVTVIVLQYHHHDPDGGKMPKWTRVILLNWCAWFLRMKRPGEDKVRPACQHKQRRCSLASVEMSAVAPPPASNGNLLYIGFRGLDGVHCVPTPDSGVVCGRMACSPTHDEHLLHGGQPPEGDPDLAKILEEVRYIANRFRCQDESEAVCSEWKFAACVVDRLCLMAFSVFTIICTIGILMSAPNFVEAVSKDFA
T2 sequence (P17787 26-502 limits assumed): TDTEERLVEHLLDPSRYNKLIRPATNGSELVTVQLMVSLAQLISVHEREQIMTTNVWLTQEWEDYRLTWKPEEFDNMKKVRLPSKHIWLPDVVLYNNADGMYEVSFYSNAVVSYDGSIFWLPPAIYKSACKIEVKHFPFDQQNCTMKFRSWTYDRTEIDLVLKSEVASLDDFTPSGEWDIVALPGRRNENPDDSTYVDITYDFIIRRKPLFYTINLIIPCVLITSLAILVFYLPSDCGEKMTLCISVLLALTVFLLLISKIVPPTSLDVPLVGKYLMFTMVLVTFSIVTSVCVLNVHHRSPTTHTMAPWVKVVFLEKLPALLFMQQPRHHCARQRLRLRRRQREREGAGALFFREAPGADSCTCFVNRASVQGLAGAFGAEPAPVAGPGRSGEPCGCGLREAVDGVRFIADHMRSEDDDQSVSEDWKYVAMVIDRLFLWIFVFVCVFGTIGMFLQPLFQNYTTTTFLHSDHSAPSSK

[3] = target: T3, human α7‐only‐nAChR (Homo sapiens, UniProt P36544); experiment: cell-based; conditions: SEM; for koff: read-out: k off α7‐only; for kon: read-out: k on α7‐only
T3 construct: expressed in transfected cells; host or cells: Xenopus laevis oocytes, cRNA injection
T3 sequence (P36544 23-502 limits assumed): as the sequence (P36544 23-502 limits assumed) above

[4] = target: T4, Outer pocket mutant α7β2‐nAChR (β2[K79T,F119Q] at both α7(+)/(−)β2 subunit interfaces) (Homo sapiens, UniProt P17787+P36544, F144Q/K104T); experiment: cell-based; conditions: SEM; for koff: read-out: k off, “Outer pocket” α7β2‐nAChR; for kon: read-out: k on, “Outer pocket” α7β2‐nAChR
T4 construct: expressed in transfected cells; host or cells: Xenopus laevis oocytes, cRNA injection
T4 sequence (P17787 26-502 K104T/F144Q): as the sequence (P17787 26-502 limits assumed) above, with K79T, F119Q counted along it
T4 sequence (P36544 23-502): as the sequence (P36544 23-502 limits assumed) above

[5] = target: T5, Inner pocket mutant α7β2‐nAChR (β2[S108T, V111L,W120Y] at both α7(+)/(−)β2 subunit interfaces) (Homo sapiens, UniProt P17787+P36544, S133T/V136L/W145Y); experiment: cell-based; conditions: SEM; for koff: read-out: k off, “Inner pocket” α7β2‐nAChR; for kon: read-out: k on, “Inner pocket” α7β2‐nAChR
T5 construct: expressed in transfected cells; host or cells: Xenopus laevis oocytes, cRNA injection
T5 sequence (P17787 26-502 S133T/V136L/W145Y): as the sequence (P17787 26-502 limits assumed) above, with S108T, V111L, W120Y counted along it
T5 sequence (P36544 23-502): as the sequence (P36544 23-502 limits assumed) above

[6] = target: T6, α3β2‐nAChR (Homo sapiens, UniProt P17787+P32297); format: cell-based
T6 construct: expressed in transfected cells; host or cells: Xenopus laevis oocytes, cRNA injection
T6 sequence (P17787 26-502): as the sequence (P17787 26-502 limits assumed) above
T6 sequence (P32297 32-505): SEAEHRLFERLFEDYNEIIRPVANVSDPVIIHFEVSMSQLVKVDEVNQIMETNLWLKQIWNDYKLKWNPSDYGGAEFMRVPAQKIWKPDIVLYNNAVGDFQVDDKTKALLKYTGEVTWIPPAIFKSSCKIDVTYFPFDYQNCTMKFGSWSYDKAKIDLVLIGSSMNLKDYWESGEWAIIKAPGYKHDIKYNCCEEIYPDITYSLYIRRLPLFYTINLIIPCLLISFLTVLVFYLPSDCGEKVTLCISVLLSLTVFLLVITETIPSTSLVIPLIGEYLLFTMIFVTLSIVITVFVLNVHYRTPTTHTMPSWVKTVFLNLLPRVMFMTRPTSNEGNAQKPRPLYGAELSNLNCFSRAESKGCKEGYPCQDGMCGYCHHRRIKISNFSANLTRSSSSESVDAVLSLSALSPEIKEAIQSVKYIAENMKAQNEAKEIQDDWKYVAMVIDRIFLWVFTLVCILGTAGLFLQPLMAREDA

[7] = target: T7, α6/3β2β3‐nAChR (Homo sapiens, UniProt P17787+P32297+Q05901+Q15825); format: cell-based
T7 construct: expressed in transfected cells; host or cells: Xenopus laevis oocytes, cRNA injection
T7 sequence (P17787 26-502): as the sequence (P17787 26-502 limits assumed) above
T7 sequence (Q15825+P32297 fused with the stated changes): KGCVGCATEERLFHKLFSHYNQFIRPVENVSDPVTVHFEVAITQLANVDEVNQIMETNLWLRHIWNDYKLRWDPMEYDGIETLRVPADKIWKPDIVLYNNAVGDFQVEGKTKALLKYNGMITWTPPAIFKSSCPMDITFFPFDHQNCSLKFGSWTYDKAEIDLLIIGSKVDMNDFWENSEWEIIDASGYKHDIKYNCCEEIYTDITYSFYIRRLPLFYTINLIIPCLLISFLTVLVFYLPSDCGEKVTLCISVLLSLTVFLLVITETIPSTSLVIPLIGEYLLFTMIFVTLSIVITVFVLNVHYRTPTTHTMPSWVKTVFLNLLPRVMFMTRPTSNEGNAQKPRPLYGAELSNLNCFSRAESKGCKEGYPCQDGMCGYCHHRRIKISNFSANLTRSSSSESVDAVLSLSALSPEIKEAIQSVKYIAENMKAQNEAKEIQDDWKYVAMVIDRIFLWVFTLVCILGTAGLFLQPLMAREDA
T7 sequence (Q05901 25-458): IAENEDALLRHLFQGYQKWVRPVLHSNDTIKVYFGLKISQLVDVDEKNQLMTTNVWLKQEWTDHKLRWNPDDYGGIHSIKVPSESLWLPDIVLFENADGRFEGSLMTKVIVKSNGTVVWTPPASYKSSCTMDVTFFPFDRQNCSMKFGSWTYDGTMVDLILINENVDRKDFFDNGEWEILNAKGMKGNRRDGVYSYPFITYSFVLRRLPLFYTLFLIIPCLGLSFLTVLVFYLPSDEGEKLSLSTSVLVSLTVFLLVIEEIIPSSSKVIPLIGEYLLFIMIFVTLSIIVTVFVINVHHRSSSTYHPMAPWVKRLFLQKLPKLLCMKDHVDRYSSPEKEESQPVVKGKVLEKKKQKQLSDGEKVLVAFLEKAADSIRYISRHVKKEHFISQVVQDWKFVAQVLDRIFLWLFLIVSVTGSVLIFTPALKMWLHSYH

[8] = target: T8, α9α10‐nAChR (Homo sapiens, UniProt Q9GZZ6+Q9UGM1); experiment: cell-based
T8 construct: expressed in transfected cells; host or cells: Xenopus laevis oocytes, cRNA injection
T8 sequence (Q9UGM1 26-479 limits assumed): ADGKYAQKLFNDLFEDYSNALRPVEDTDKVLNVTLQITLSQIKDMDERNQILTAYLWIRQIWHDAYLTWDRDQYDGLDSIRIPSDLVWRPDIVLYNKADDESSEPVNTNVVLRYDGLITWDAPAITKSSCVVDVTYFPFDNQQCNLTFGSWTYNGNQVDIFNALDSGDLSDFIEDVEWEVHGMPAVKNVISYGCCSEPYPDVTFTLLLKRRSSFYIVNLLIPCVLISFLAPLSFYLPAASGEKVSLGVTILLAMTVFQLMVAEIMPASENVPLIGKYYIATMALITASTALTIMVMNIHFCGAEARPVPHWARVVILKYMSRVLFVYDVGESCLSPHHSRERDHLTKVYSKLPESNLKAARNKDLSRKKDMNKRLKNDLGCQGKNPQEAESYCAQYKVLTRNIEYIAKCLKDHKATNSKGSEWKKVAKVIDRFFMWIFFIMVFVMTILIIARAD
T8 sequence (Q9GZZ6 25-450): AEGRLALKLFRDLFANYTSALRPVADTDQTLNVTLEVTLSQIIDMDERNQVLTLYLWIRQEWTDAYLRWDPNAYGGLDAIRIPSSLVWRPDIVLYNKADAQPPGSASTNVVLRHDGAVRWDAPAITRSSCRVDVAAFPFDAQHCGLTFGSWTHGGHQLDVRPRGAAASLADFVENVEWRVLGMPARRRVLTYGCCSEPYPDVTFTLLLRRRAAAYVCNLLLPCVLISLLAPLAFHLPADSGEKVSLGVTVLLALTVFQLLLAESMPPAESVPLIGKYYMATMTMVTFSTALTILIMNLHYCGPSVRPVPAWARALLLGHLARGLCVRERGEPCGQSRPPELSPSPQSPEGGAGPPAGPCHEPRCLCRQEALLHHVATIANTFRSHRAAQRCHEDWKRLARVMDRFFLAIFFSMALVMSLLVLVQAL

[9] = target: T9, Outer pocket mutant α7β2‐nAChR (β2[K79T,F119Q]) (Homo sapiens, UniProt P17787+P36544, F144Q/K104T); experiment: ACh concentration‐response curve, TEVC, outer pocket α7β2‐nAChR; format: cell-based; conditions: mean ± SEM of 15–19 oocytes
T9 construct: expressed in transfected cells; host or cells: Xenopus laevis oocytes, cRNA injection
T9 sequence (P36544 23-502): as the sequence (P36544 23-502 limits assumed) above
T9 sequence (P17787 26-502 K104T/F144Q): as the sequence (P17787 26-502 limits assumed) above, with K79T, F119Q counted along it

[10] = target: T10, Inner pocket mutant α7β2‐nAChR (β2[S108T, V111L,W120Y]) (Homo sapiens, UniProt P17787+P36544, S133T/V136L/W145Y); experiment: ACh concentration‐response curve, TEVC, inner pocket α7β2‐nAChR; format: cell-based; conditions: mean ± SEM of 15–19 oocytes
T10 construct: expressed in transfected cells; host or cells: Xenopus laevis oocytes, cRNA injection
T10 sequence (P36544 23-502): as the sequence (P36544 23-502 limits assumed) above
T10 sequence (P17787 26-502 S133T/V136L/W145Y): as the sequence (P17787 26-502 limits assumed) above, with S108T, V111L, W120Y counted along it

[11] = read-out: k off, Unaltered α7β2‐nAChR, SEM
[12] = read-out: k on, Unaltered α7β2‐nAChR, SEM
[13] = ACh 10 μM – 10 mM, half‐log steps, 3 s, 60 s apart

T1 sequence (P30926 22-498): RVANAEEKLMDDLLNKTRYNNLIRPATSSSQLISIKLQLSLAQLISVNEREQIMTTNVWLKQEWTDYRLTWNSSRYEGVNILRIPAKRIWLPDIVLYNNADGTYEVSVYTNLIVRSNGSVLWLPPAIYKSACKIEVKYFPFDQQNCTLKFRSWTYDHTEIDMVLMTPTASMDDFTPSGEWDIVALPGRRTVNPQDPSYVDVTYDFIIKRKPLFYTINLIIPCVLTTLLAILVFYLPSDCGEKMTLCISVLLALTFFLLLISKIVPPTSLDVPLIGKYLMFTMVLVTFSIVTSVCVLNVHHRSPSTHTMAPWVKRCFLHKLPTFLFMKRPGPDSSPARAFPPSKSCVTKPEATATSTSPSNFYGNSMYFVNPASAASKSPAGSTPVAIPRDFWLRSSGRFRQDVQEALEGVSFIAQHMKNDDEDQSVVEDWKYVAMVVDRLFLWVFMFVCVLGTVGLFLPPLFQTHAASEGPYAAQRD
T1 sequence (P32297 32-505): as the sequence (P32297 32-505) above

## CC(C)C[C@@H]1NC(=O)[C@H](CC(C)C)NC(=O)[C@@H]2CSSC[C@H](NC(=O)CN)C(=O)N[C@@H](CSSC[C@@H](C(N)=O)NC(=O)[C@H](Cc3ccc(O)cc3)NC(=O)[C@H](CC(=O)O)NC(=O)[C@@H]3CCCN3C(=O)[C@H](CC(N)=O)NC(=O)[C@H](CC(N)=O)NC1=O)C(=O)N[C@@H](CO)C(=O)N[C@@H](Cc1c[nH]cn1)C(=O)N1CCC[C@H]1C(=O)N1CCC[C@H]1C(=O)N2 [[F9L]]
[1]
  block of ACh‐induced function, α3β4‐nAChR: > 90%
[2]; K d α7β2, SEM
  Kd: 15 ± 2 nM
[2]; read-out: k off α7β2, SEM
  koff: 0.000292 s⁻¹
[2]; read-out: k on α7β2, SEM
  kon: 20500 M⁻¹ s⁻¹
[3]
  Kd: 20 ± 3 nM
  koff: 0.000637 s⁻¹
  kon: 32800 M⁻¹ s⁻¹

## CC(C)C[C@@H]1NC(=O)[C@H](Cc2ccccc2)NC(=O)[C@@H]2CSSC[C@H](NC(=O)CN)C(=O)N[C@@H](CSSC[C@@H](C(N)=O)NC(=O)[C@H](Cc3ccc(O)cc3)NC(=O)[C@H](CC(=O)O)NC(=O)[C@@H]3CCCN3C(=O)[C@H](CC(N)=O)NC(=O)[C@H](CC(N)=O)NC1=O)C(=O)N[C@@H](CCCNC(=N)N)C(=O)N[C@@H](Cc1c[nH]cn1)C(=O)N1CCC[C@H]1C(=O)N1CCC[C@H]1C(=O)N2 [[S4R]]
[4]
  Kd: 6.74 ± 2.67 nM
  koff: 0.000255 s⁻¹
  kon: 64300 M⁻¹ s⁻¹
[5]
  Kd: 5.31 ± 1.04 nM
  koff: 0.000232 s⁻¹
  kon: 45500 M⁻¹ s⁻¹
[2]; K d α7β2, SEM
  Kd: 0.83 ± 0.05 nM
[2]; K d, Unaltered α7β2‐nAChR, SEM
  Kd: 1.9 ± 0.21 nM
[2]; read-out: k off α7β2, SEM
  koff: 9.33e-05 s⁻¹
[2]; [11]
  koff: 0.000124 s⁻¹
[2]; read-out: k on α7β2, SEM
  kon: 112000 M⁻¹ s⁻¹
[2]; [12]
  kon: 67500 M⁻¹ s⁻¹
[3]
  Kd: 15 ± 6 nM
  koff: 0.000597 s⁻¹
  kon: 56700 M⁻¹ s⁻¹

## CC(C)C[C@@H]1NC(=O)[C@H](Cc2ccccc2)NC(=O)[C@@H]2CSSC[C@H](NC(=O)CN)C(=O)N[C@@H](CSSC[C@@H](C(N)=O)NC(=O)[C@H](CC(=O)O)NC(=O)[C@H](CC(=O)O)NC(=O)[C@@H]3CCCN3C(=O)[C@H](CC(N)=O)NC(=O)[C@H](CC(N)=O)NC1=O)C(=O)N[C@@H](CO)C(=O)N[C@@H](Cc1c[nH]cn1)C(=O)N1CCC[C@H]1C(=O)N1CCC[C@H]1C(=O)N2 [[Y15D]]
[6]
  block of ACh‐induced function, α3β2‐nAChR: ≈ 50%
[2]; K d α7β2, SEM
  Kd: 9.9 ± 2.1 nM
[2]; read-out: k off α7β2, SEM
  koff: 0.000298 s⁻¹
[2]; read-out: k on α7β2, SEM
  kon: 43300 M⁻¹ s⁻¹
[3]
  Kd: 27 ± 3 nM
  koff: 0.00112 s⁻¹
  kon: 54800 M⁻¹ s⁻¹
[7]
  block of ACh‐induced function, α6/3β2β3‐nAChR: ≈ 35%

## NCC(=O)N[C@H]1CSSC[C@@H]2NC(=O)[C@@H]3CCCN3C(=O)[C@@H]3CCCN3C(=O)[C@H](Cc3c[nH]cn3)NC(=O)[C@H](CO)NC(=O)[C@H](CSSC[C@@H](C(N)=O)NC(=O)[C@H](Cc3ccc(O)cc3)NC(=O)[C@H](CC(=O)O)NC(=O)[C@@H]3CCCN3C(=O)[C@H](CC(N)=O)NC(=O)[C@H](CC(N)=O)NC(=O)[C@H](Cc3ccc(O)cc3)NC(=O)[C@H](Cc3ccccc3)NC2=O)NC1=O [[L10Y]]
[4]
  Kd: 28 ± 4 nM
  koff: 0.00064 s⁻¹
  kon: 24000 M⁻¹ s⁻¹
[5]
  Kd: 24 ± 3 nM
  koff: 0.000537 s⁻¹
  kon: 21700 M⁻¹ s⁻¹
[2]; K d α7β2
  Kd: 1 to 2 nM
[2]; K d α7β2, SEM
  Kd: 12 ± 3 nM
[2]; K d, Unaltered α7β2‐nAChR, SEM
  Kd: 20 ± 4 nM
[2]; read-out: k off α7β2, SEM
  koff: 0.000462 s⁻¹
[2]; [11]
  koff: 0.000508 s⁻¹
[2]; read-out: k on α7β2, SEM
  kon: 50200 M⁻¹ s⁻¹
[2]; [12]
  kon: 30700 M⁻¹ s⁻¹
[3]
  Kd: 671 ± 136 nM
  koff: 0.0044 s⁻¹
  kon: 6670 M⁻¹ s⁻¹
[8]
  IC50: > 300 nM

## CC(C)C[C@@H]1NC(=O)[C@H](Cc2ccccc2)NC(=O)[C@@H]2CSSC[C@H](NC(=O)CN)C(=O)N[C@@H](CSSC[C@@H](C(N)=O)NC(=O)[C@H](Cc3ccc(O)cc3)NC(=O)[C@H](CCC(=O)O)NC(=O)[C@@H]3CCCN3C(=O)[C@H](CC(N)=O)NC(=O)[C@H](CC(N)=O)NC1=O)C(=O)N[C@@H](CO)C(=O)N[C@@H](Cc1c[nH]cn1)C(=O)N1CCC[C@H]1C(=O)N1CCC[C@H]1C(=O)N2 [[D14E]]
[2]; K d α7β2, SEM
  Kd: 1.4 ± 0.3 nM
[2]; read-out: k off α7β2, SEM
  koff: 6e-05 s⁻¹
[2]; read-out: k on α7β2, SEM
  kon: 49500 M⁻¹ s⁻¹
[3]
  Kd: 2 ± 0.6 nM
  koff: 0.000111 s⁻¹
  kon: 57500 M⁻¹ s⁻¹

## CC(=O)OCC[N+](C)(C)C [ACh, acetylcholine]
[9]; [13]
  Imax, maximum function induced by ACh, outer pocket α7β2‐nAChR: 1401 ± 137 nA
[9]; logistic fit per oocyte
  hillslope (nH), outer pocket α7β2‐nAChR: 1.17 ± 0.12
[10]; [13]
  Imax, maximum function induced by ACh, inner pocket α7β2‐nAChR: 1539 ± 193 nA
[10]; logistic fit per oocyte
  hillslope (nH), inner pocket α7β2‐nAChR: 0.93 ± 0.06

## CC(C)C[C@@H]1NC(=O)[C@H](Cc2ccccc2)NC(=O)[C@@H]2CSSC[C@H](NC(=O)CN)C(=O)N[C@@H](CSSC[C@@H](C(N)=O)NC(=O)[C@H](Cc3ccc(O)cc3)NC(=O)[C@H](CC(=O)O)NC(=O)[C@@H]3CCCN3C(=O)[C@H](Cc3c[nH]cn3)NC(=O)[C@H](CC(N)=O)NC1=O)C(=O)N[C@@H](CO)C(=O)N[C@@H](Cc1c[nH]cn1)C(=O)N1CCC[C@H]1C(=O)N1CCC[C@H]1C(=O)N2 [[N12H]]
[2]; K d α7β2, SEM
  Kd: 13 ± 2 nM
[2]; read-out: k off α7β2, SEM
  koff: 0.000308 s⁻¹
[2]; read-out: k on α7β2, SEM
  kon: 24500 M⁻¹ s⁻¹
[3]
  Kd: 81 ± 19 nM
  koff: 0.0011 s⁻¹
  kon: 18300 M⁻¹ s⁻¹
